Laboratory results published in patent publication US20090221690A1, “Pharmaceutical Composition for the Prevention/Treatment of Bone Disorders and a Process for the Preparation Thereof” (COUNCIL OF SCIENTIFIC AND INDUSTRIAL RESEARCH, priority 2006, published 2009).

How the values were obtained:
primary osteoblasts = test: MTT assay for cell proliferation, primary osteoblast cell culture; assay type: cell-based, Balb/c mouse; conditions: for Osteoblast cell proliferation (MTT assay) / osteoblast cell proliferation vs vehicle control: 24 h; for Osteoblast cell proliferation (MTT assay): Vehicle 0.60 ± 0.06, Mean±SEM; for osteoblast cell proliferation vs vehicle control: 10^−11 M to 10^−5 M
Method: (§1) Neonatal mouse calvarial cell cultures are prepared as described previously (Endocrinology 139:4743) using slight modification. Briefly, for primary osteoblast cell cultures, frontal and parietal bones from Balb/c mouse neonates (1-3 day old) are digested in 0.1% collagenase/0.1% dispase in α-MEM to obtain 5 sequential digests. The second through fifth digests are combined and grown to confluence at 37° C. and 5% CO2 in air in α-MEM, supplemented with 10% fetal bovine serum (FBS), 2 mM glutamine, 100 U/ml penicillin-streptomycin, Non-essential amino acid solution and sodium pyruvate. The effect of test agents is analysed using the following tests:
MTT assay is a common assay used for assessing cell proliferation where tetrazolium salt is reduced to formazone crystals by the mitochondrial dehydrogenase enzyme, which are then dissolved in DMSO. More the number of metabolically active cells more will be the formazone crystals formed. Briefly, osteoblast cells are maintained in α-MEM medium supplemented with 10% FCS and 1% antibiotic solution in 96 well plate. When the cells attain 40% confluency, they are treated in presence or absence of test agents in 2% FCS supplemented media for 24 h. Twenty-four hours thereafter, MTT salt is added to the cells. After 4 h, the formazone crystals formed are dissolved in DMSO and readings taken at wavelength of 570 nm.
This assay is based on the ability of viable cells to reduce tetrazolium salt to form formazone crystals by mitochondrial dehydrogenase enzyme. In MTT assay, osteoblasts are maintained in α-MEM medium supplemented with 10% FCS and 1% antibiotic solution in 96 well plate. When the cells attain 40% confluency, they are treated in presence or absence of test agents in 2% FCS supplemented media for 24 h. Twenty-four hours thereafter, MTT salt is added to the cells. After 4 h, the formazone crystals formed due to reduction of tetrazolium salt by mitochondrial dehydrogenase enzyme are dissolved in DMSO and readings taken at wavelength of 570 nm. All the five pure compounds nos.

[1] = test system: osteoblasts cultured on sterile bovine bone slices; test: Mineralisation by osteoblasts cultured on bovine bone slices, Alizarin red staining; assay type: cell-based, Balb/c mouse; conditions: osteoblasts on bovine bone slices, 15 days; alone or in combination; FIGS. 14 and 15
Method: as §1
(§2) Cells are seeded onto sterile bovine bone slices in 96-well plate and treated with the culture medium containing α-MEM, supplemented with 10% fetal bovine serum, 2 mM glutamine, 100 U/ml penicillin-streptomycin, non-essential amino acid solution, sodium pyruvate, 10 mM P-glycerophosphate and 50 μg/ml ascorbic acid. Culture medium is changed every alternate day. At termination of the culture, cells are washed twice with PBS, fixed in cold 70% ethanol for 1 h and washed once with water and stained with 40 mM Alizarin red (pH 4.7) for 30 min and then washed in PBS to remove excess staining.
as §2, with “In case of osteoblasts” for “Cells are”, “slices, the cells are cultured” for “slices”, “in A-MEM” for “and treated with the culture medium containing α-MEM,”, “p-glycerophosphate” for “P-glycerophosphate”, “acid in the absence or presence of test compounds or their mixtures.” for “acid.”, “culture after 15 days,” for “culture,”

osteoblasts [2] = test: Osteogenic activity of isolated compounds based on alkaline phosphatase expression, MTT and mineralisation in vitro; assay type: cell-based
Excerpt: K051, K052, K054, K080, K082 (isolated from n-butanol soluble fraction) and K095 (isolated from chloroform soluble fraction) (FIGS. 11-15; Tables 10-11).

osteoblasts [3] = test: Quantification of alkaline phosphatase activity in osteoblasts; assay type: cell-based, Balb/c mouse; set-up: alkaline phosphatase activity: unit not given here; conditions: 48 h; for alkaline phosphatase activity: Control 1.87 ± 0.20, Mean±SEM; for expression of alkaline phosphatase vs vehicle control: 10^−11 M to 10^−5 M
Method: as §1
p-Nitrophenol phosphate is a colorless substrate which is hydrolysed to colored p-nitrophenol by alkaline phosphatase enzyme. Rate of hydrolysis of p-nitrophenol phosphate is proportional to enzyme present in sample. […] Findings reveal that all the five pure compounds nos.

osteoblast cells = test: Quantification of mineralization in osteoblasts (Alizarin red, acetic acid extraction); assay type: cell-based, Balb/c mouse; conditions: osteoblasts cultured 7 days; vs vehicle control; FIG. 13
Method: as §1
For quantification of mineralization which is measured with increased deposition of nascent calcium in osteoblast cells, cells were cultured in the presence of test compounds for 7 days and stained with Alizarin red. Alizarin red was extracted with acetic acid and the intensity of stain, which is directly proportion to the extent of mineralisation, is read at 405 nm.

[4] = test system: MCF-7 (human cancer breast) cell line; test: MTT proliferation assay in MCF-7 cell line; assay type: cell-based; conditions: 10 nM and 1 μM; MCF-7 cells; FIG. 2
[5] = test system: Ishikawa (human uterine glandular epithelial carcinoma) cell line; test: MTT proliferation assay in Ishikawa cell line; assay type: cell-based; conditions: 10 nM and 1 μM; Ishikawa cells; FIG. 2
rat fetal bones = test: Total alkaline phosphatase activity in cultured rat fetal bones; assay type: cell-based; set-up: dose or concentration left out as unconfirmed; conditions: rat fetal bones cultured for 48 h
Method: […] The homogenate is centrifuged at 5000 rpm for 10 min at 4° C. The supernatant is used as the enzyme solution. The activity of alkaline phosphatase is measured using ALP kit (Roche, Germany) and p-nitrophenol phosphate as substrate.

| Structure (SMILES) | osteogenic activity (osteoblasts [2]) | Osteoblast cell proliferation (MTT assay) (primary osteoblasts; 10^−5 M) | Osteoblast cell proliferation (MTT assay) (primary osteoblasts; 10^−6 M) | Osteoblast cell proliferation (MTT assay) (primary osteoblasts; 10^−7 M) | Osteoblast cell proliferation (MTT assay) (primary osteoblasts; 10^−8 M) | Osteoblast cell proliferation (MTT assay) (primary osteoblasts; 10^−9 M) | Osteoblast cell proliferation (MTT assay) (primary osteoblasts; 10^−10 M) | osteoblast cell proliferation vs vehicle control (primary osteoblasts) | Osteoblast cell proliferation (MTT assay) (primary osteoblasts; 10^−11 M) | intensity of alizarin red staining (rate of new bone formation) [1] | alkaline phosphatase activity (osteoblasts [3]; 10^−5 M) | alkaline phosphatase activity (osteoblasts [3]; 10^−6 M) | alkaline phosphatase activity (osteoblasts [3]; 10^−7 M) | alkaline phosphatase activity (osteoblasts [3]; 10^−8 M) | alkaline phosphatase activity (osteoblasts [3]; 10^−9 M) | alkaline phosphatase activity (osteoblasts [3]; 10^−10 M) | expression of alkaline phosphatase vs vehicle control (osteoblasts [3]) | alkaline phosphatase activity (osteoblasts [3]; 10^−11 M) | mineralisation quantified by alizarin extraction method (osteoblast cells) | other results |
| --- | --- | --- | --- | --- | --- | --- | --- | --- | --- | --- | --- | --- | --- | --- | --- | --- | --- | --- | --- | --- |
| COc1cc(O)c2c(=O)c(-c3ccc(O)cc3O)coc2c1 [Compound K051, 2′,4′,5-trihydroxy-7-methoxy isoflavones] | promising osteogenic activity | 1.32 ± 0.05 | 1.34 ± 0.09 | 1.33 ± 0.01 | 1.32 ± 0.04 | 1.03 ± 0.03 | 0.92 ± 0.05 | enhanced osteoblast cell proliferation | 0.85 ± 0.05 | increased intensity of alizarin red staining | 3.26 ± 0.07 | 3.24 ± 0.09 | 3.23 ± 0.11 | 3.41 ± 0.12 | 3.50 ± 0.07 | 3.59 ± 0.08 | increased expression of alkaline phosphatase | 3.63 ± 0.04 | enhanced mineralisation |  |
| COc1ccc(-c2coc3cc(O)ccc3c2=O)cc1O [Compound K054, 7, 3′-dihydroxy-4′-methoxyisoflavone] | promising osteogenic activity | 1.40 ± 0.02 | 1.24 ± 0.01 | 1.26 ± 0.07 | 1.24 ± 0.06 | 1.06 ± 0.04 | 0.88 ± 0.09 | enhanced osteoblast cell proliferation | 0.75 ± 0.06 | increased intensity of alizarin red staining | 2.65 ± 0.09 | 3.25 ± 0.07 | 3.32 ± 0.06 | 3.35 ± 0.03 | 3.32 ± 0.09 | 3.22 ± 0.12 | increased expression of alkaline phosphatase | 3.01 ± 0.25 | enhanced mineralisation |  |
| COc1ccc(-c2c(C)oc3cc(O)ccc3c2=O)cc1 [Compound K082, 2-methyl, 7-hydroxy, 4′-methoxy isoflavone] | promising osteogenic activity |  |  |  |  |  |  |  |  | increased intensity of alizarin red staining |  |  |  |  |  |  |  |  | enhanced mineralisation |  |
| O=C(c1ccc(OCCN2CCCCC2)cc1)c1c(-c2ccc(O)cc2)sc2cc(O)ccc12 [Raloxifene] |  |  |  |  |  |  |  |  |  |  |  |  |  |  |  |  |  |  |  | proliferation [4]: increased proliferation was observed in only the Ishikawa cell line; proliferation [5]: increased proliferation was observed |
| O=P([O-])([O-])OC(CO)CO.[Na+].[Na+] [Sodium β-glycerophosphate] |  |  |  |  |  |  |  |  |  |  |  |  |  |  |  |  |  |  |  | Total alkaline phosphatase activity, percent increase (percent of vehicle control group) (rat fetal bones): 28%; Total alkaline phosphatase activity, percent increase (percent of vehicle control group) (rat fetal bones; listed as sodium p-glycerophosphate): 28% |

Continued, in another order:

| osteogenic activity (osteoblasts [2]) | Structure (SMILES) | Osteoblast cell proliferation (MTT assay) (primary osteoblasts; 10^−5 M) | Osteoblast cell proliferation (MTT assay) (primary osteoblasts; 10^−6 M) | Osteoblast cell proliferation (MTT assay) (primary osteoblasts; 10^−7 M) | Osteoblast cell proliferation (MTT assay) (primary osteoblasts; 10^−8 M) | Osteoblast cell proliferation (MTT assay) (primary osteoblasts; 10^−9 M) | Osteoblast cell proliferation (MTT assay) (primary osteoblasts; 10^−10 M) | osteoblast cell proliferation vs vehicle control (primary osteoblasts) | Osteoblast cell proliferation (MTT assay) (primary osteoblasts; 10^−11 M) | intensity of alizarin red staining (rate of new bone formation) [1] | alkaline phosphatase activity (osteoblasts [3]; 10^−5 M) | alkaline phosphatase activity (osteoblasts [3]; 10^−6 M) | alkaline phosphatase activity (osteoblasts [3]; 10^−7 M) | alkaline phosphatase activity (osteoblasts [3]; 10^−8 M) | alkaline phosphatase activity (osteoblasts [3]; 10^−9 M) | alkaline phosphatase activity (osteoblasts [3]; 10^−10 M) | expression of alkaline phosphatase vs vehicle control (osteoblasts [3]) | alkaline phosphatase activity (osteoblasts [3]; 10^−11 M) | mineralisation quantified by alizarin extraction method (osteoblast cells) | other results |
| --- | --- | --- | --- | --- | --- | --- | --- | --- | --- | --- | --- | --- | --- | --- | --- | --- | --- | --- | --- | --- |
| promising osteogenic activity | COc1ccc2c(=O)c(-c3ccc(O)cc3)coc2c1 [Compound K052, 4′-hydroxy, 7-methoxy-isoflavone] | 1.19 ± 0.01 | 1.86 ± 0.13 | 1.70 ± 0.15 | 1.73 ± 0.09 | 1.70 ± 0.08 | 1.43 ± 0.05 | enhanced osteoblast cell proliferation | 1.45 ± 0.23 | increased intensity of alizarin red staining | 2.29 ± 0.24 | 3.01 ± 0.09 | 3.05 ± 0.10 | 3.20 ± 0.06 | 3.07 ± 0.10 | 3.01 ± 0.26 | increased expression of alkaline phosphatase | 3.17 ± 0.06 | enhanced mineralisation | relative potency in osteoblast proliferation (MTT) (primary osteoblasts; order K052, K080, K095, K051, K054): most potent |
| promising osteogenic activity | COc1ccc(-c2coc3cc(O)ccc3c2=O)cc1 [Compound K080, 7-hydroxy, 4′-methoxy-isoflavone] | 1.49 ± 0.03 | 1.55 ± 0.05 | 1.43 ± 0.09 | 1.47 ± 0.02 | 1.58 ± 0.09 | 1.35 ± 0.03 | enhanced osteoblast cell proliferation | 1.25 ± 0.09 | increased intensity of alizarin red staining | 3.45 ± 0.06 | 3.40 ± 0.02 | 3.46 ± 0.06 | 3.30 ± 0.01 | 3.33 ± 0.02 | 3.27 ± 0.08 | increased expression of alkaline phosphatase | 3.38 ± 0.02 | enhanced mineralisation |  |
